# Test system: COX-2
# Assay: TNF-α induced COX-2 expression in HT29 cells, Western blot
# Format: cell-based, human
# Details: 25 μM
# Protocol: Western Blot Assay: HT-29 cells were seeded into 60 mm culture dishes and cultured to 70% confluence. Medium was changed from 10% to 1% FBS medium to minimize the effects of other growth-promoting substances normally contained in serum. For COX-2 expression studies, the cells were pre-treated with different concentrations of Avns oat extract and CH3-Avn-C for 1 hr followed by stimulation with 40 ng/ml of TNF-α for 23 hr. The medium was collected and kept at −80° C. for further analyzing prostaglandin E2 (PGE2) production. For analyzing the NFkB phosphorylation, the cells were pre-treated with different concentrations of Avns oat extract and CH3-Avn-C for 23 hr followed by stimulation with 40 ng/ml of TNF-α for 20 min. For determining the COX1 expression level, the cells were treated with different concentrations of Avns oat extract and CH3-Avn-C for 24 hr. To get the whole cell lysate for western, cells were harvested in 2× protein sample buffer by scraping the cells. […] Proteins bound to the primary antibodies were detected by the enhanced chemiluminescence (ECL) detection system and quantified by densitometric scanning.
# Effect of Avns on COX-2 expression: HT29 cells express a low basal level of COX-2 protein. […] The expression of COX2 was measured by Western blotting. β-Actin expression level was used as a loading control. […]
smiles,measurement,value
CS(=O)(=O)Nc1ccc([N+](=O)[O-])cc1OC1CCCCC1 [NS398],inhibition of COX2 expression,50%
